Laboratory results taken from patent US4112228A, “7-(D-α-Hydroxy-2-arylacetamido)-3-(2-carboxyalkyl-2,3-dihydro-s-tri azolo-[4,3-b]pyridazin-3-on-6-ylthiomethyl)-3-cephem-4-carboxylic acids and derivatives” (priority 1977, dated 1978).
≈ marks a conversion by molar mass, not a printed value. Read-outs that look alike come from different tables or passages of the source.

Columns and labels:
[1] = tested on: Pr. mirabilis; experiment: MIC by Steers' agar dilution method; details: Proteus mirabilis, MHA
[2] = tested on: Pr. morganii; experiment: MIC by Steers' agar dilution method; details: Morganella morganii
[3] = tested on: Pr. rettgeri; experiment: MIC by Steers' agar dilution method; details: Providencia rettgeri
[4] = tested on: S. pyogenes; experiment: MIC by Steers' agar dilution method
[5] = tested on: P. stuartii; experiment: MIC by Steers' agar dilution method; details: Providencia stuartii
[6] = tested on: S. paratyphi; experiment: MIC by Steers' agar dilution method; details: Salmonella enterica
[7] = tested on: S. typhimurium; experiment: MIC by Steers' agar dilution method; details: Salmonella enterica
[8] = tested on: P. vulgaris A9436 (Pv-1); experiment: Standard experimental infection (single sc treatment); details: for No. of survivors/No. tested: Run C-808, single sc

O=C(O)Cn1nc2ccc(SCC3=C(C(=O)O)N4C(=O)C(NC(=O)[C@H](O)c5ccccc5)[C@H]4SC3)nn2c1=O (stereo partly drawn) [BB-S488, 7-(D-Mandelamido)-3-(2-carboxymethyl-2,3-dihydro-s-triazolo[4,3-b]pyridazin-3-on-6-ylthiomethyl)-3-cephem-4-carboxylic Acid]
MIC ([1]; Pm-6 A21222, Table 3): 1.6 µg/mL (≈ 2.79 µM) | MIC ([1]; strain not given (1st of 2), Example 10): 0.05 µg/mL (≈ 0.0873 µM) | MIC ([1]; strain not named (2nd of 2), Example 10): 0.05 µg/mL (≈ 0.0873 µM) | MIC ([2]; A9553, MHA, Table 1): > 100 µg/mL | MIC ([2]; A20031, MHA, Table 1): 0.1 µg/mL (≈ 0.175 µM) | MIC ([2]; Pg-1 A9553 (β-lactamase), HIA, Table 4): > 100 µg/mL | MIC ([2]; Pg-1 A9553 (β-lactamase), MHA, Table 4): > 100 µg/mL | MIC ([2]; Pg-1 A9553 (β-lactamase), NA, Table 4): > 100 µg/mL | MIC ([2]; Pg-1 A9553, MHA, Table 3): > 100 µg/mL | MIC ([2]; Pg-2 A20031, HIA, Table 4): 0.2 µg/mL (≈ 0.349 µM) | MIC ([2]; Pg-2 A20031, MHA, Table 3): 0.2 µg/mL (≈ 0.349 µM) | MIC ([2]; Pg-2 A20031, MHA, Table 4): 0.1 µg/mL (≈ 0.175 µM) | MIC ([2]; Pg-2 A20031, NA, Table 4): 0.2 µg/mL (≈ 0.349 µM) | MIC ([2]; Pg-3 A9636, MHA, Table 3): 0.8 µg/mL (≈ 1.4 µM) | MIC ([2]; Pg-5 A15166, MHA, Table 3): 0.1 µg/mL (≈ 0.175 µM) | MIC ([2]; Pg-6 A20455 (β-lactamase), HIA, Table 4): 0.8 µg/mL (≈ 1.4 µM) | MIC ([2]; Pg-6 A20455 (β-lactamase), MHA, Table 4): 0.4 µg/mL (≈ 0.699 µM) | MIC ([2]; Pg-6 A20455 (β-lactamase), NA, Table 4): 0.4 µg/mL (≈ 0.699 µM) | MIC ([2]; Pg-6 A20455, MHA, Table 3): 0.4 µg/mL (≈ 0.699 µM) | MIC ([2]; Pg-7 A20457, MHA, Table 3): 0.2 µg/mL (≈ 0.349 µM) | MIC ([2]; Pg-8 A15153, MHA, Table 3): 0.1 µg/mL (≈ 0.175 µM) | MIC ([2]; Pg-9 A15149, MHA, Table 3): 0.8 µg/mL (≈ 1.4 µM) | MIC ([2]; strain not given (1st of 2), MHA, Example 10): > 100 µg/mL | MIC ([2]; strain not named (2nd of 2), MHA, Example 10): 0.2 µg/mL (≈ 0.349 µM) | MIC ([3]; A15167, MHA, Table 1): 0.05 µg/mL (≈ 0.0873 µM) | MIC ([3]; MHA, Example 10): 0.2 µg/mL (≈ 0.349 µM) | MIC ([3]; Pr-1 A15167, HIA, Table 4): 0.1 µg/mL (≈ 0.175 µM) | MIC ([3]; Pr-1 A15167, MHA, Table 3): 0.1 µg/mL (≈ 0.175 µM) | MIC ([3]; Pr-1 A15167, MHA, Table 4): 0.05 µg/mL (≈ 0.0873 µM) | MIC ([3]; Pr-1 A15167, NA, Table 4): 0.4 µg/mL (≈ 0.699 µM) | MIC ([3]; Pr-2 A9637, MHA, Table 3): 0.1 µg/mL (≈ 0.175 µM) | MIC ([3]; Pr-4 A20645, MHA, Table 3): 0.1 µg/mL (≈ 0.175 µM) | MIC ([3]; Pr-5 A20915, MHA, Table 3): 0.2 µg/mL (≈ 0.349 µM) | MIC ([3]; Pr-6 A20920, MHA, Table 3): 0.1 µg/mL (≈ 0.175 µM) | MIC [4]: 0.2 µg/mL (≈ 0.349 µM) | MIC ([4]; Sp-2 Dick, MHA, Table 2): 0.4 µg/mL (≈ 0.699 µM) | MIC ([4]; Sp-3 A9604, MHA, Table 2): 0.4 µg/mL (≈ 0.699 µM) | MIC ([4]; Sp-5 A15040, MHA, Table 2): 0.4 µg/mL (≈ 0.699 µM) | MIC ([4]; Sp-6 A20066, MHA, Table 2): 0.4 µg/mL (≈ 0.699 µM) | MIC ([4]; Sp-7 Dig 7, MHA, Table 2): 0.4 µg/mL (≈ 0.699 µM) | MIC ([4]; Sp-8 A15041, MHA, Table 2): 0.4 µg/mL (≈ 0.699 µM) | MIC ([4]; Sp-9 A20201, MHA, Table 2): 0.4 µg/mL (≈ 0.699 µM) | MIC ([4]; Sp-10 A20202, MHA, Table 2): 0.4 µg/mL (≈ 0.699 µM) | MIC ([4]; Streptococcus pyogenes): 0.4 µg/mL (≈ 0.699 µM) | MIC ([5]; Ps-1 A20745, HIA, Table 4): 50 µg/mL (≈ 87.3 µM) | MIC ([5]; Ps-1 A20745, MHA, Table 3): 0.4 µg/mL (≈ 0.699 µM) | MIC ([5]; Ps-1 A20745, MHA, Table 4): 12.5 µg/mL (≈ 21.8 µM) | MIC ([5]; Ps-1 A20745, NA, Table 4): 50 µg/mL (≈ 87.3 µM) | MIC ([5]; Ps-2 A20894, HIA, Table 4): 0.4 µg/mL (≈ 0.699 µM) | MIC ([5]; Ps-2 A20894, MHA, Table 3): 0.2 µg/mL (≈ 0.349 µM) | MIC ([5]; Ps-2 A20894, MHA, Table 4): 0.2 µg/mL (≈ 0.349 µM) | MIC ([5]; Ps-2 A20894, NA, Table 4): 0.8 µg/mL (≈ 1.4 µM) | MIC ([5]; Ps-3 A20911 (β-lactamase), HIA, Table 4): 25 µg/mL (≈ 43.7 µM) | MIC ([5]; Ps-3 A20911 (β-lactamase), MHA, Table 4): 12.5 µg/mL (≈ 21.8 µM) | MIC ([5]; Ps-3 A20911 (β-lactamase), NA, Table 4): 50 µg/mL (≈ 87.3 µM) | MIC ([5]; Ps-3 A20911, MHA, Table 3): 0.8 µg/mL (≈ 1.4 µM) | MIC ([5]; Ps-4 A21051, MHA, Table 3): 50 µg/mL (≈ 87.3 µM) | MIC ([5]; Ps-5 A21057, MHA, Table 3): 0.2 µg/mL (≈ 0.349 µM) | MIC [6]: 0.1 µg/mL (≈ 0.175 µM) | MIC [7]: 0.1 µg/mL (≈ 0.175 µM) | ED50 ([8]; Proteus vulgaris, in Mus musculus, sc, read-out: PD50): 1.1 mg/kg | No. of survivors/No. tested ([8]; 0.4 mg./kg.): 1/5 | No. of survivors/No. tested ([8]; 1.6 mg./kg.): 3/5 | No. of survivors/No. tested ([8]; 6.3 mg./kg.): 5/5 | No. of survivors/No. tested ([8]; 25 mg./kg.): 5/5
